Data published in PubChem BioAssay AID1963851 (Molecular Pharmacology Branch, DTP, NCI, 2024).

Test system: 188146-221-R-J1-PDC complex spheroid viability
Experiment: Anticancer human tumor 188146-221-R-J1-PDC patient-derived colon adenocarcinoma cell line growth inhibition [POLQ]
Conditions: for IC50: curve of first compound; for viability, T/C: stronger effect = lower value
Summary of the method: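 Growth inhibition in 3D: complex spheroids (tumor PDC, HUVEC, MSC) treated with POLQ inhibitor combinations; where Cmax unknown, highest tested concentration 10 microM, except SN-38 at 1 microM.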

[1] = second compound 0.0316 µM, first compound 0.0316 µM
[2] = second compound 0.0316 µM, first compound 0.1 µM
[3] = second compound 0.0316 µM, first compound 0.316 µM
[4] = second compound 0.0316 µM, first compound 1 µM
[5] = second compound 0.1 µM, first compound 0.0316 µM
[6] = second compound 0.1 µM, first compound 0.1 µM
[7] = second compound 0.1 µM, first compound 0.316 µM
[8] = second compound 0.1 µM, first compound 1 µM
[9] = second compound 0.316 µM, first compound 0.0316 µM
[10] = second compound 0.316 µM, first compound 0.1 µM
[11] = second compound 0.316 µM, first compound 0.316 µM
[12] = second compound 0.316 µM, first compound 1 µM
[13] = second compound 1 µM, first compound 0.0316 µM
[14] = second compound 1 µM, first compound 0.1 µM
[15] = second compound 1 µM, first compound 0.316 µM
[16] = second compound 1 µM, first compound 1 µM
[17] = second compound 3.16 µM, first compound 0.0316 µM
[18] = second compound 3.16 µM, first compound 0.1 µM
[19] = second compound 3.16 µM, first compound 0.316 µM
[20] = second compound 3.16 µM, first compound 1 µM
[21] = second compound 10 µM, first compound 0.0316 µM
[22] = second compound 10 µM, first compound 0.1 µM
[23] = second compound 10 µM, first compound 0.316 µM
[24] = second compound 10 µM, first compound 1 µM
[25] = second compound 0.0316 µM, first compound 3.16 µM
[26] = second compound 0.0316 µM, first compound 10 µM
[27] = second compound 0.1 µM, first compound 3.16 µM
[28] = second compound 0.1 µM, first compound 10 µM
[29] = second compound 0.316 µM, first compound 3.16 µM
[30] = second compound 0.316 µM, first compound 10 µM
[31] = second compound 1 µM, first compound 3.16 µM
[32] = second compound 1 µM, first compound 10 µM
[33] = second compound 3.16 µM, first compound 3.16 µM
[34] = second compound 3.16 µM, first compound 10 µM
[35] = second compound 10 µM, first compound 3.16 µM
[36] = second compound 10 µM, first compound 10 µM
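Also: spheroids exposed to compounds for seven days.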
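For viability, T/C in this document: 100% = DMSO vehicle control viability.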

CCc1c2c(nc3ccc(O)cc13)-c1cc3c(c(=O)n1C2)COC(=O)[C@]3(O)CC + Nc1ccc(C#CCN(C(=O)Cc2ncc(C(F)(F)F)cc2C(F)(F)F)c2ccc(F)cc2)nn1 showed an IC50 (second compound 0.0316 µM) of 0.0198 µM, an IC50 (second compound 0.1 µM) of 0.0251 µM and an IC50 (second compound 0.316 µM) of 0.0207 µM. It also gave an IC50 (second compound 1 µM) of 0.0232 µM, an IC50 (second compound 3.16 µM) of 0.0265 µM and an IC50 (second compound 10 µM) of 0.0232 µM. It also gave a viability, T/C (second compound 0.0316 µM, first compound 0.00316 µM) of 94.7%, a viability, T/C (second compound 0.0316 µM, first compound 0.01 µM) of 69.8% and a viability, T/C [1] of 35%. For the same compound, the viability, T/C [2] was 20.9%, the viability, T/C [3] was 12.5% and the viability, T/C [4] was 7.87%. It also gave a viability, T/C (second compound 0.1 µM, first compound 0.00316 µM) of 101%, a viability, T/C (second compound 0.1 µM, first compound 0.01 µM) of 81.1% and a viability, T/C [5] of 42.1%. For the same compound, the viability, T/C [6] was 18.5%, the viability, T/C [7] was 13.3% and the viability, T/C [8] was 10.1%. For the same compound, the viability, T/C (second compound 0.316 µM, first compound 0.00316 µM) was 100%, the viability, T/C (second compound 0.316 µM, first compound 0.01 µM) was 73.1% and the viability, T/C [9] was 35.9%. It also gave a viability, T/C [10] of 18.3%, a viability, T/C [11] of 12.4% and a viability, T/C [12] of 8.23%. It also gave a viability, T/C (second compound 1 µM, first compound 0.00316 µM) of 88.9%, a viability, T/C (second compound 1 µM, first compound 0.01 µM) of 77.8% and a viability, T/C [13] of 37.7%. It also gave a viability, T/C [14] of 22.3%, a viability, T/C [15] of 13.7% and a viability, T/C [16] of 8.08%. It also gave a viability, T/C (second compound 3.16 µM, first compound 0.00316 µM) of 90.5%, a viability, T/C (second compound 3.16 µM, first compound 0.01 µM) of 89.7% and a viability, T/C [17] of 42.2%. The viability, T/C [18] was 19.3%, the viability, T/C [19] was 12.6% and the viability, T/C [20] was 8.98%. For the same compound, the viability, T/C (second compound 10 µM, first compound 0.00316 µM) was 98.6%, the viability, T/C (second compound 10 µM, first compound 0.01 µM) was 75.3% and the viability, T/C [21] was 38.9%. It also gave a viability, T/C [22] of 22.6%, a viability, T/C [23] of 15.7% and a viability, T/C [24] of 8.14%.

Work on CCc1cc2c(N3CCc4c(cc(Cn5ccnc5)cc4-c4cn(C)nc4C(F)(F)F)C3=O)ccnc2c(OC)n1 + Nc1ccc(C#CCN(C(=O)Cc2ncc(C(F)(F)F)cc2C(F)(F)F)c2ccc(F)cc2)nn1 yielded an IC50 (second compound 0.0316 µM) greater than 10 µM, an IC50 (second compound 0.1 µM) of 9.81 µM and an IC50 (second compound 0.316 µM) greater than 10 µM. It also gave an IC50 (second compound 1 µM) of 9.79 µM, an IC50 (second compound 3.16 µM) greater than 10 µM and an IC50 (second compound 10 µM) greater than 10 µM. For the same compound, the viability, T/C [1] was 105%, the viability, T/C [2] was 107% and the viability, T/C [3] was 90.8%. The viability, T/C [4] was 93.7%, the viability, T/C [25] was 73% and the viability, T/C [26] was 54.6%. The viability, T/C [5] was 110%, the viability, T/C [6] was 116% and the viability, T/C [7] was 87.9%. For the same compound, the viability, T/C [8] was 104%, the viability, T/C [27] was 82.3% and the viability, T/C [28] was 48.6%. The viability, T/C [9] was 119%, the viability, T/C [10] was 108% and the viability, T/C [11] was 101%. It also gave a viability, T/C [12] of 91.4%, a viability, T/C [29] of 75.6% and a viability, T/C [30] of 51.3%. The viability, T/C [13] was 113%, the viability, T/C [14] was 101% and the viability, T/C [15] was 85.8%. The viability, T/C [16] was 95.6%, the viability, T/C [31] was 72.4% and the viability, T/C [32] was 48.2%. For the same compound, the viability, T/C [17] was 106%, the viability, T/C [18] was 91% and the viability, T/C [19] was 94.1%. The viability, T/C [20] was 87.8%, the viability, T/C [33] was 87.1% and the viability, T/C [34] was 50%. The viability, T/C [21] was 110%, the viability, T/C [22] was 113% and the viability, T/C [23] was 107%. For the same compound, the viability, T/C [24] was 82.5%, the viability, T/C [35] was 71.2% and the viability, T/C [36] was 52.5%.

O=C(Nc1ccc(O)c(NS(=O)(=O)c2ccc(F)cc2)c1)c1ccc(-c2ccccc2)cc1 + Nc1ccc(C#CCN(C(=O)Cc2ncc(C(F)(F)F)cc2C(F)(F)F)c2ccc(F)cc2)nn1 gave an IC50 (second compound 0.0316 µM) greater than 10 µM, an IC50 (second compound 0.1 µM) greater than 10 µM and an IC50 (second compound 0.316 µM) greater than 10 µM. It also gave an IC50 (second compound 1 µM) greater than 10 µM, an IC50 (second compound 3.16 µM) greater than 10 µM and an IC50 (second compound 10 µM) greater than 10 µM. For the same compound, the viability, T/C [1] was 104%, the viability, T/C [2] was 100% and the viability, T/C [3] was 88%. The viability, T/C [4] was 109%, the viability, T/C [25] was 92.7% and the viability, T/C [26] was 72%. It also gave a viability, T/C [5] of 105%, a viability, T/C [6] of 119% and a viability, T/C [7] of 109%. The viability, T/C [8] was 104%, the viability, T/C [27] was 88.9% and the viability, T/C [28] was 63.6%. It also gave a viability, T/C [9] of 119%, a viability, T/C [10] of 100% and a viability, T/C [11] of 93.5%. The viability, T/C [12] was 92%, the viability, T/C [29] was 93.6% and the viability, T/C [30] was 60.1%. The viability, T/C [13] was 124%, the viability, T/C [14] was 112% and the viability, T/C [15] was 108%. It also gave a viability, T/C [16] of 79.7%, a viability, T/C [31] of 97.8% and a viability, T/C [32] of 73.2%. The viability, T/C [17] was 111%, the viability, T/C [18] was 110% and the viability, T/C [19] was 118%. It also gave a viability, T/C [20] of 99.9%, a viability, T/C [33] of 107% and a viability, T/C [34] of 60.1%. For the same compound, the viability, T/C [21] was 111%, the viability, T/C [22] was 118% and the viability, T/C [23] was 110%. It also gave a viability, T/C [24] of 99.1%, a viability, T/C [35] of 110% and a viability, T/C [36] of 68.6%.
